Laboratory results: the supplement of paper PMC11208160

Assay: recombinant barcode read abundance after kanamycin selection (control-corrected) (log10(CPM+1)); higher = more efficient recombination; sequences stand for … in AGTGCAGAGAAAATCGGCCAGTTTTCTCTGCCTGCAGTCCGCATGCCGT…AGATTTATGCAGCGGACTGCCTTTCTCCCAAAGTGATAAACCGGACAGTATCATGGACCGGTTTTCCCGGTAATCCGTATTTGCAAGGTTGGTTTCACT; site = the 11-nt target
Outline: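 IS621 bridge RNA target-binding loops were paired with targets in a pooled library tested in E. coli. After co-electroporation with a donor plasmid, cells were plated in two replicates on chloramphenicol/ampicillin LB agar (control) and on chloramphenicol/ampicillin/kanamycin carrying 0.1 mM IPTG. Barcodes at recombinant junctions were counted as counts per million, averaged and control-corrected to give recombination efficiency. Values are log10(CPM+1).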
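Also: IS621 recombinase and bridge RNA in Escherichia coli cells.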

Sequence	recombinant barcode read abundance (log10)
GAGCCGACTTGGGTTCTAACCTGTTGCCT (site GAGCTGACTAG)	0.0365
GAGCCGCCTTGGGTTCTAACCTGTTGCAT (site GAGCCGCCTAT)	1.48
GAGCCGCCTTGGGTTCTAACCTGTTGCAT (site GGGACGCCTAT)	0.0756
GAGCCGCCTTGGGTTCTAACCTGTTGCCG (site GAGCCACCTCA)	0.118
GAGCCGCCTTGGGTTCTAACCTGTTGCCG (site GAGCCGCCTCG)	1.04
GAGCCTACTTGGGTTCTAACCTGTTGCCT (site GAACCTACTCG)	0.0224
GAGCCTACTTGGGTTCTAACCTGTTGCCT (site GAGCCTACTAG)	1.29
GAGCCTACTTGGGTTCTAACCTGTTGCTA (site AAGCCTACTTA)	0.25
GAGCCTACTTGGGTTCTAACCTGTTGCTA (site GAGCCTACTTA)	1.02
GAGCGAGCTTGGGTTCTAACCTGTTGCTA (site GAGCGAGCTTA)	1.31
GAGCGAGCTTGGGTTCTAACCTGTTGCTA (site GAGCGGACTTA)	0.267
GAGCGCACTTGGGTTCTAACCTGTTGCGG (site GAGCGCACTCC)	2.13
GAGCGCACTTGGGTTCTAACCTGTTGCGG (site GAGCGCACTCT)	1.51
GAGCGCTCTTGGGTTCTAACCTGTTGCTA (site GAGCGCTCTAA)	0.167
GAGCGCTCTTGGGTTCTAACCTGTTGCTA (site GAGCGCTCTCA)	0.223
GAGCGCTCTTGGGTTCTAACCTGTTGCTA (site GAGCGCTCTGA)	0.12
GAGCGCTCTTGGGTTCTAACCTGTTGCTA (site GAGCGCTCTTA)	0.636
GAGCGCTCTTGGGTTCTAACCTGTTGCTC (site GAGCGCTCTAA)	0.525
GAGCGCTCTTGGGTTCTAACCTGTTGCTC (site GAGCGCTCTCA)	0.0599
GAGCGCTCTTGGGTTCTAACCTGTTGCTC (site GAGCGCTCTGA)	1.18
GAGCGCTCTTGGGTTCTAACCTGTTGCTC (site GAGCGCTCTTA)	0.381
GAGCGTACTTGGGTTCTAACCTGTTGCAT (site GAGAGTACTAT)	0.257

Sequence	recombinant barcode read abundance (log10)
GAGCGTACTTGGGTTCTAACCTGTTGCAT (site GAGCGTACTAT)	1.09
GAGCGTACTTGGGTTCTAACCTGTTGCAT (site GAGGGTACTAT)	0.0723
GAGCGTACTTGGGTTCTAACCTGTTGCAT (site GAGTGTACTAT)	0.0144
GAGCGTCCTTGGGTTCTAACCTGTTGCTA (site AGCGAATCTCG)	0.0924
GAGCGTCCTTGGGTTCTAACCTGTTGCTA (site GAGCGTCCTTA)	0.94
GAGCTACCTTGGGTTCTAACCTGTTGCCT (site GAGCTACCTAG)	1.46
GAGCTACCTTGGGTTCTAACCTGTTGCCT (site GAGCTACCTCG)	0.549
GAGCTACCTTGGGTTCTAACCTGTTGCCT (site GAGCTACCTGG)	0.172
GAGCTACCTTGGGTTCTAACCTGTTGCCT (site GAGCTACCTTG)	0.0234
GAGCTGCCTTGGGTTCTAACCTGTTGCTT (site AAGCTGCCTAG)	0.25
GAGCTGCCTTGGGTTCTAACCTGTTGCTT (site GAGCTGCCTAA)	1.3
GAGGAGCCTTGGGTTCTAACCTGTTGCGT (site GAGGAGCCTAC)	2.62
GAGGAGCCTTGGGTTCTAACCTGTTGCGT (site TAGGAACCTAC)	1.34
GAGGCGGCTTGGGTTCTAACCTGTTGCTT (site GAGACGGCTAA)	0.162
GAGGCGGCTTGGGTTCTAACCTGTTGCTT (site GAGCCGGCTAA)	0.149
GAGGCGGCTTGGGTTCTAACCTGTTGCTT (site GAGGCGGCTAA)	1.04
GAGGCGGCTTGGGTTCTAACCTGTTGCTT (site GAGTCGGCTAA)	0.0862
GAGGCTCCTTGGGTTCTAACCTGTTGCCA (site GAGGCTCCTAG)	2.19
GAGGCTCCTTGGGTTCTAACCTGTTGCCA (site GAGGCTCCTCG)	0.0289
GAGGCTCCTTGGGTTCTAACCTGTTGCCA (site GAGGCTCCTGG)	0.164
GAGGCTCCTTGGGTTCTAACCTGTTGCCA (site GAGGCTCCTTG)	0.365
GAGGCTCCTTGGGTTCTAACCTGTTGCCT (site GAGGCTCCTAG)	0.744

Sequence	recombinant barcode read abundance (log10)
GAGGCTCCTTGGGTTCTAACCTGTTGCCT (site GAGGCTCCTCG)	0.0603
GAGGCTCCTTGGGTTCTAACCTGTTGCCT (site GAGGCTCCTGG)	0.137
GAGGCTCCTTGGGTTCTAACCTGTTGCCT (site GAGGCTCCTTG)	0.201
GAGGGCCCTTGGGTTCTAACCTGTTGCCG (site GAGGGCCCTCA)	0.29
GAGGGCCCTTGGGTTCTAACCTGTTGCCG (site GAGGGCCCTCC)	1.2
GAGGGCCCTTGGGTTCTAACCTGTTGCCG (site GAGGGCCCTCG)	1.96
GAGGGCCCTTGGGTTCTAACCTGTTGCCG (site GAGGGCCCTCT)	0.759
GAGGGCCCTTGGGTTCTAACCTGTTGCGG (site GAGGGCCCTCA)	1.94
GAGGGCCCTTGGGTTCTAACCTGTTGCGG (site GAGGGCCCTCC)	3.11
GAGGGCCCTTGGGTTCTAACCTGTTGCGG (site GAGGGCCCTCG)	0.81
GAGGGCCCTTGGGTTCTAACCTGTTGCGG (site GAGGGCCCTCT)	2.8
GAGGGTACTTGGGTTCTAACCTGTTGCAT (site GAGAGTACTAT)	1.16
GAGGGTACTTGGGTTCTAACCTGTTGCAT (site GAGCGTACTAT)	0.206
GAGGGTACTTGGGTTCTAACCTGTTGCAT (site GAGGGTACTAT)	2.69
GAGGGTACTTGGGTTCTAACCTGTTGCAT (site GAGTGTACTAT)	0.102
GAGGGTCCTTGGGTTCTAACCTGTTGCGT (site GAGGGTCCTAA)	0.194
GAGGGTCCTTGGGTTCTAACCTGTTGCGT (site GAGGGTCCTAC)	2.82
GAGGGTCCTTGGGTTCTAACCTGTTGCGT (site GAGGGTCCTAG)	1.86
GAGGGTCCTTGGGTTCTAACCTGTTGCGT (site GAGGGTCCTAT)	2.29
GAGTACCCTTGGGTTCTAACCTGTTGCGT (site GAGAATCCTAC)	0.107
GAGTACCCTTGGGTTCTAACCTGTTGCGT (site GAGTACCCTAC)	3.2
GAGTAGCCTTGGGTTCTAACCTGTTGCGG (site GAGTAGCCTCC)	2.59

Sequence	recombinant barcode read abundance (log10)
GAGTAGCCTTGGGTTCTAACCTGTTGCGG (site GAGTCGCCTCC)	0.196
GAGTAGCCTTGGGTTCTAACCTGTTGCGG (site GAGTGGCCTCC)	0.3
GAGTAGCCTTGGGTTCTAACCTGTTGCGG (site GAGTTGCCTCC)	0.204
GAGTGTACTTGGGTTCTAACCTGTTGCAT (site GAGAGTACTAT)	0.208
GAGTGTACTTGGGTTCTAACCTGTTGCAT (site GAGCGTACTAT)	0.553
GAGTGTACTTGGGTTCTAACCTGTTGCAT (site GAGGGTACTAT)	0.029
GAGTGTACTTGGGTTCTAACCTGTTGCAT (site GAGTGTACTAT)	1.32
GAGTGTTCTTGGGTTCTAACCTGTTGCTT (site GAGTGTTCTAA)	0.277
GAGTGTTCTTGGGTTCTAACCTGTTGCTT (site TGTACGACTCC)	0.0677
GATAACTCTTGGGTTCTAACCTGTTGCCT (site AATAACTCTAG)	0.802
GATAACTCTTGGGTTCTAACCTGTTGCCT (site CATAACTCTAG)	0.329
GATAACTCTTGGGTTCTAACCTGTTGCCT (site GATAACTCTAG)	0.734
GATAACTCTTGGGTTCTAACCTGTTGCCT (site TATAACTCTAG)	0.315
GATACTGCTTGGGTTCTAACCTGTTGCCT (site GAAACTGCTAG)	0.0212
GATACTGCTTGGGTTCTAACCTGTTGCCT (site GACACTGCTAG)	0.434
GATACTGCTTGGGTTCTAACCTGTTGCCT (site GAGACTGCTAG)	0.0206
GATACTGCTTGGGTTCTAACCTGTTGCCT (site GATACTGCTAG)	0.504
GATAGGACTTGGGTTCTAACCTGTTGCGT (site GATAGGACTAC)	2.12
GATAGGACTTGGGTTCTAACCTGTTGCGT (site TATAGGACTAC)	2.03
GATAGGGCTTGGGTTCTAACCTGTTGCGG (site GATAGGGCTCC)	2.34
